Data taken from patent US7705030B2, “Amino-5-(5-membered)hetero-arylimidazolone compounds and the use thereof for β-secretase modulation” (Wyeth LLC, priority 2005, dated 2010).

Legend:
human BACE1 = human BACE1 (Homo sapiens, UniProt P56817); assay: Fluorescent kinetic assay: Evaluation of BACE-1 Binding Affinity of Test Compounds; assay type: biochemical; details: 10 nM enzyme, 25 μM substrate WABC-6, 50 mM Na-Acetate pH 4.5, room temperature
Method in brief: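 Run with 10 nM human BACE1 and 25 μM WABC-6 FRET peptide in 50 mM Na-acetate pH 4.5, 0.05% CHAPS, 25% PBS at room temperature. Fluorescence (ex 320/em 420 nm) was read every 40 sec for 30 min, and initial cleavage rates were taken from linear slopes across ≥10 inhibitor concentrations.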

Chain of human BACE1 (P56817 46-501): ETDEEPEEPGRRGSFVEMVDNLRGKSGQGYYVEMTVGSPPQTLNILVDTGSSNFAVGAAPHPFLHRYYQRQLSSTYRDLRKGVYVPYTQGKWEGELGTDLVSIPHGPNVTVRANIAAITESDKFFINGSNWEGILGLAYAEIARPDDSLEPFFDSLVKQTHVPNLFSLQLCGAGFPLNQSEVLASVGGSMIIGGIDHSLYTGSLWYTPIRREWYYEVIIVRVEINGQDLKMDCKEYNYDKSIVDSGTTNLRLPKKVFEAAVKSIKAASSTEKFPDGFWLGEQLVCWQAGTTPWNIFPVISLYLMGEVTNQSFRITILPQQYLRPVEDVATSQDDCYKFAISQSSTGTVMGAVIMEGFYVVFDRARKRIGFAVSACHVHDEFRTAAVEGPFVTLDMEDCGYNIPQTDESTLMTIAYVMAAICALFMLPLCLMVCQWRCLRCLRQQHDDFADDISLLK

Structure (SMILES) | IC50 (human BACE1) | melting point
CCC(=O)c1cc(C2(c3cccc(-c4cncnc4)c3)N=C(N)N(C)C2=O)cs1 (stereo not drawn) [Example 116, 2-Amino-3-methyl-5-(5-propionyl-thiophen-3-yl)-5-(3-pyrimidin-5-yl-phenyl)-3,5-dihydro-imidazol-4-one] | 10 to 100 nM | 167 to 172 °C
COC(=O)c1cc(C2(c3ccc(F)c(-c4cncnc4)c3)N=C(N)N(C)C2=O)cn1CCF (stereo not drawn) [Example 118, Methyl 4-[2-Amino-4-(4-fluoro-3-pyrimidinyl-5-phenyl)-1-methyl-5-oxo-4,5-dihydro-1H-imidazol-4-yl]-1-(2-fluoroethyl)-1H-pyrrole-2-carboxylate] | 10 to 100 nM | 88 to 90 °C
COC(=O)c1cc([C@]2(c3ccc(F)c(-c4cncnc4)c3)N=C(N)N(C)C2=O)cn1CCF [Example 119A, Methyl 4-[(4S)2-Amino-4-(4-fluoro-3-pyrimidinyl-5-phenyl)-1-methyl-5-oxo-4,5-dihydro-1H-imidazol-4-yl]-1-(2-fluoroethyl)-1H-pyrrole-2-carboxylate] | 10 to 100 nM | 186 to 188 °C
COC(=O)c1cc([C@@]2(c3ccc(F)c(-c4cncnc4)c3)N=C(N)N(C)C2=O)cn1CCF [Example 119B, Methyl 4-[(4R)2-Amino-4-(4-fluoro-3-pyrimidinyl-5-phenyl)-1-methyl-5-oxo-4,5-dihydro-1H-imidazol-4-yl]-1-(2-fluoroethyl)-1H-pyrrole-2-carboxylate] | 110 to 1000 nM | 186 to 188 °C
COC(=O)c1cc(C2(c3ccc(F)c(-c4cncnc4)c3)N=C(N)N(C)C2=O)cn1CC(F)(F)F (stereo not drawn) [Example 121] | 10 to 100 nM | 182 to 184 °C
COC(=O)c1cc(C2(c3ccc(F)c(-c4cccnc4F)c3)N=C(N)N(C)C2=O)cn1CCF (stereo not drawn) [Example 122] | 10 to 100 nM | 127 to 128 °C
CCn1cc(C2(c3ccc(F)c(-c4cccnc4F)c3)N=C(N)N(C)C2=O)cc1C(=O)OC (stereo not drawn) [Example 123] | 10 to 100 nM | 113 to 115 °C
CC(C)OC(=O)c1cc(C2(c3ccc(F)c(-c4cccnc4F)c3)N=C(N)N(C)C2=O)cn1CCF (stereo not drawn) [Example 124] | 110 to 1000 nM | 117 to 118 °C
CCOC(=O)c1cc(C2(c3ccc(F)c(-c4cccnc4F)c3)N=C(N)N(C)C2=O)cn1CC (stereo not drawn) [Example 125] | 10 to 100 nM | 114 to 115 °C
CC(C)OC(=O)c1cc(C2(c3ccc(F)c(-c4cncnc4)c3)N=C(N)N(C)C2=O)cn1CCF (stereo not drawn) [Example 127] | 110 to 1000 nM | 167 to 170 °C
CCOc1ccc(C2(c3cc(C(=O)NC)n(CC)c3)N=C(N)N(C)C2=O)cc1-c1cccnc1F (stereo not drawn) [Example 128] | > 1000 nM | 148 to 150 °C
CCCC(=O)Nc1cccc(C2(c3cc(C(=O)CC)n(CC)c3)N=C(N)N(C)C2=O)c1 (stereo not drawn) [Example 129, N-{3-[2-amino-4-(1-ethyl-5-propionyl-1H-pyrrol-3-yl)-1-methyl-5-oxo-4,5-dihydro-1H-imidazol-4-yl]-phenyl}-butyramide] | 110 to 1000 nM | 201 to 205 °C
CCC(=O)Nc1cccc(C2(c3cc(C(=O)CC)n(CC)c3)N=C(N)N(C)C2=O)c1 (stereo not drawn) [Example 130, N-{3-[2-amino-4-(1-ethyl-5-propionyl-1H-pyrrol-3-yl)-1-methyl-5-oxo-4,5-dihydro-1H-imidazol-4-yl]-phenyl}-propionamide] | 110 to 1000 nM | 120 to 141 °C
CCC(=O)c1cc(C2(c3cccc(NC(=O)COC)c3)N=C(N)N(C)C2=O)cn1CC (stereo not drawn) [Example 131, N-{3-[2-amino-4-(1-ethyl-5-propionyl-1H-pyrrol-3-yl)-1-methyl-5-oxo-4,5-dihydro-1H-imidazol-4-yl]-phenyl}-2-methoxy-acetamide] | 10 to 100 nM | 95 to 115 °C
CCCOc1cccc(C2(c3cc(C(=O)CC)n(CC)c3)N=C(N)N(C)C2=O)c1 (stereo not drawn) [Example 132, 2-Amino-5-(1-ethyl-5-propionyl-1H-pyrrol-3-yl)-3-methyl-5-(3-propoxyphenyl)-3,5-dihydro-4H-imidazol-4-one] | 10 to 100 nM | 95 °C
CCCCCOc1cccc(C2(c3cc(C(=O)CC)n(CC)c3)N=C(N)N(C)C2=O)c1 (stereo not drawn) [Example 133] | 10 to 100 nM | 70 °C
CCC(=O)c1cc(C2(c3cccc(OCCC(C)(C)C)c3)N=C(N)N(C)C2=O)cn1CC (stereo not drawn) [Example 134] | 110 to 1000 nM | 93 °C
CCCCOc1cccc(C2(c3cc(C(=O)CC)n(CC)c3)N=C(N)N(C)C2=O)c1 (stereo not drawn) [Example 136] | 110 to 1000 nM | 76 °C
CCC(=O)c1cc(C2(c3cccc(OCC4CC4)c3)N=C(N)N(C)C2=O)cn1CC (stereo not drawn) [Example 137] | 10 to 100 nM | 86 °C
CCC(=O)c1cc(C2(c3cccc(OCC(C)C)c3)N=C(N)N(C)C2=O)cn1CC (stereo not drawn) [Example 138] | 10 to 100 nM | 78 °C
C=CCCCOc1cccc(C2(c3cc(C(=O)CC)n(CC)c3)N=C(N)N(C)C2=O)c1 (stereo not drawn) [Example 140] | 10 to 100 nM | 69 °C
CCCOc1cccc(C2(c3cccs3)N=C(N)N(C)C2=O)c1 (stereo not drawn) [Example 141, 2-Amino-3-methyl-5-(3-propoxyphenyl)-5-thien-2-yl-3,5-dihydro-4H-imidazol-4-one] | 110 to 1000 nM | 79 to 81 °C
CC(C)CCOc1cccc(C2(c3ccsc3)N=C(N)N(C)C2=O)c1 (stereo not drawn) [Example 144] | 110 to 1000 nM | 84 to 88 °C
CN1C(=O)C(c2ccsc2)(c2cccc(OCC3CCCCC3)c2)N=C1N (stereo not drawn) [Example 147] | > 1000 nM | 88 to 90 °C

Structure (SMILES) | IC50 (human BACE1) | melting point
CC(C)COc1cccc(C2(c3ccsc3)N=C(N)N(C)C2=O)c1 (stereo not drawn) [Example 148] | 110 to 1000 nM | 70 to 73 °C
CCCn1cc(C2(c3cccc(-c4cccnc4F)c3)N=C(N)N(C)C2=O)cc1C(=O)CC (stereo not drawn) [Example 149, 2-Amino-5-[3-(2-fluoropyridin-3-yl)phenyl]-3-methyl-5-(5-propionyl-1-propyl-1H-pyrrol-3-yl)-3,5-dihydro-4H-imidazol-4-one] | 10 to 100 nM | 118 °C
CCC(=O)c1cc(C2(c3cccc(-c4cccnc4F)c3)N=C(N)N(C)C2=O)cn1CCCF (stereo not drawn) [Example 152] | 10 to 100 nM | 105 °C
CCC(=O)c1cc(C2(c3cccc(-c4cccnc4F)c3)N=C(N)N(C)C2=O)cn1CC (stereo not drawn) [Example 155] | 10 to 100 nM | 126 to 128 °C
CCn1cc(C2(c3cccc(-c4cccnc4F)c3)N=C(N)N(C)C2=O)cc1C(=O)NC (stereo not drawn) [Example 157] | 10 to 100 nM | 138 to 140 °C
CCNC(=O)c1cc(C2(c3cccc(-c4cccnc4F)c3)N=C(N)N(C)C2=O)cn1CC (stereo not drawn) [Example 158] | 10 to 100 nM | 132 to 135 °C
CCCNC(=O)c1cc(C2(c3cccc(-c4cccnc4F)c3)N=C(N)N(C)C2=O)cn1CC (stereo not drawn) [Example 159] | 110 to 1000 nM | 120 to 123 °C
CCCCNC(=O)c1cc(C2(c3cccc(-c4cccnc4F)c3)N=C(N)N(C)C2=O)cn1CC (stereo not drawn) [Example 160] | 10 to 100 nM | 118 to 120 °C
CCn1cc(C2(c3cccc(-c4cccnc4F)c3)N=C(N)N(C)C2=O)cc1C(=O)NC(C)C (stereo not drawn) [Example 161] | 110 to 1000 nM | 121 to 123 °C
CCn1cc(C2(c3cccc(-c4cccnc4F)c3)N=C(N)N(C)C2=O)cc1C(=O)NC1CCCC1 (stereo not drawn) [Example 162] | 110 to 1000 nM | 127 to 128 °C
CCn1cc(C2(c3cccc(-c4cccnc4F)c3)N=C(N)N(C)C2=O)cc1C(=O)N1CCCCC1 (stereo not drawn) [Example 163] | 10 to 100 nM | 111 to 113 °C
CCn1cc(C2(c3cccc(-c4cccnc4F)c3)N=C(N)N(C)C2=O)cc1C(=O)N1CCOCC1 (stereo not drawn) [Example 164] | 10 to 100 nM | 108 to 109 °C
CCn1cc(C2(c3cccc(-c4cccnc4F)c3)N=C(N)N(C)C2=O)cc1C(=O)N(C)C (stereo not drawn) [Example 165] | 110 to 1000 nM | > 200 °C
CCn1cc(C2(c3cccc(-c4cccnc4F)c3)N=C(N)N(C)C2=O)cc1C(=O)NCc1ccc(F)cc1 (stereo not drawn) [Example 166] | 110 to 1000 nM | 110 to 112 °C
CCC(=O)c1cc(C2(c3cccc(-c4cccnc4F)c3)N=C(N)N(C)C2=O)cn1CCF (stereo not drawn) [Example 167] | 10 to 100 nM | 100 °C
CCCCCC(=O)c1cc(C2(c3cccc(-c4cccnc4F)c3)N=C(N)N(C)C2=O)cn1CC (stereo not drawn) [Example 169] | 10 to 100 nM | 71 to 73 °C
CCn1cc(C2(c3cccc(-c4cccnc4F)c3)N=C(N)N(C)C2=O)cc1C(=O)c1ccccc1 (stereo not drawn) [Example 170] | 10 to 100 nM | 104 to 106 °C
CCn1cc(C2(c3cccc(-c4cccnc4F)c3)N=C(N)N(C)C2=O)cc1C(=O)C1CCCCC1 (stereo not drawn) [Example 171] | 10 to 100 nM | 94 to 100 °C
CCn1cc(C2(c3cccc(-c4cccnc4F)c3)N=C(N)N(C)C2=O)cc1C(=O)C1CC1 (stereo not drawn) [Example 172] | 10 to 100 nM | 98 to 100 °C
CCn1cc(C2(c3cccc(-c4cccnc4F)c3)N=C(N)N(C)C2=O)cc1C(=O)C(C)C (stereo not drawn) [Example 173] | 10 to 100 nM | 85 to 88 °C
CCC(C)C(=O)c1cc(C2(c3cccc(-c4cccnc4F)c3)N=C(N)N(C)C2=O)cn1CC (stereo not drawn) [Example 174] | 10 to 100 nM | 210 to 211 °C
CCC(=O)c1cc(C2(c3cccc(-c4cccnc4F)c3)N=C(N)N(C)C2=O)cn1CCCC(F)(F)F (stereo not drawn) [Example 176] | 10 to 100 nM | 91 to 94 °C
CCC(=O)c1cc(C2(c3cccc(-c4cccnc4F)c3)N=C(N)N(C)C2=O)cn1CCCCF (stereo not drawn) [Example 178] | 10 to 100 nM | 105 °C
CCC(=O)c1cc(C2(c3cccc(-c4cccnc4F)c3)N=C(N)N(C)C2=O)cn1CC(C)C (stereo not drawn) [Example 179] | 10 to 100 nM | 98 to 102 °C
